Converted amounts (≈) assume the structure as drawn.

This experiment is described as follows: Cytotoxicity of compound was determined against KB cells. Particulars: Homo sapiens. The class given is functional, cell-based.

One may read the IC50 as the concentration at which inhibition is half-maximal. Low readings indicate greater potency, high ones weaker potency. Turning to `COc1ccc(C[C@H]2NC(=O)/C=C/C[C@@H]([C@H](C)C3OC3c3ccccc3)OC(=O)[C@H](CC(C)C)CC(=O)CCNC2=O)cc1` (some centres undefined), the IC50 was determined as 70 ng/mL (≈ 116 nM).

Compound `COc1ccc(C[C@H]2NC(=O)/C=C/C[C@@H]([C@H](C)[C@H]3O[C@@H]3c3ccccc3)OC(=O)[C@H](CC(C)C)OC(=O)CCNC2=O)cc1` [ARENASTATIN A] came in with an IC50 of 0.005 ng/mL (≈ 0.00824 nM).

Take `COc1ccc(C[C@H]2NC(=O)/C=C/C[C@@H]([C@H](C)C3OC3c3ccccc3)OC(=O)[C@H](CC(C)C)NC(=O)CCNC2=O)cc1` (some centres undefined): the IC50 stood at 6 ng/mL (≈ 9.91 nM).

Turning to `COc1ccc(C[C@H]2NC(=O)/C=C/C[C@@H]([C@H](C)C3OC3c3ccccc3)OC(=O)[C@H](CC(C)C)OCCNC2=O)cc1` (some centres undefined), the IC50 is 40 ng/mL (≈ 69.1 nM).

Values taken from ChEMBL document CHEMBL1133271, “Synthesis and biological property of carba and 20-deoxo analogues of arenastatin A” (Bioorg Med Chem Lett, 2000).
